Tests used:
[1] = system: Human PBMCs; experiment: IFN-α induction by TLR agonists in human PBMCs (Luminex); type: cell-based
Procedure: 1) IFN-α Induction Assay—IFN-α induction by TLR Agonists in Human PBMCs
Abbreviations: BSA=bovine serum albumine; PBS=phosphate buffer pH 7.4; PE=phycoerythrin; EDC=1-ethyl-3-(3-dimethylaminopropyl)carbodiimide hydrochloride.
Materials and Devices: Bio Plex 200 Luminex device, and BioPlex Manager software; MultiScreen Filter Plates (Millipore, MABVN1250); low binding reaction vials 1.5 ml (Sarstedt, 72.706.600); Activation Buffer: 0.1M Na-dihydrogen phosphate, 0.1M Di-Na hydrogen phosphate pH 6.2; Sulfo-NHS (N-hydroxysulfosuccinimide) solution: 50 mg/ml in water (freshly prepared); EDC solution: 50 mg/ml in water (freshly prepared); Coupling Buffer: PBS; Washing Buffer: PBS+0.05% Tween20; Blocking Buffer: PBS+10 mg/ml BSA+0.05% sodium azide; Assay Buffer: PBS+10 mg/ml BSA;
Other materials and devices (pipets, reaction vessels, shaker, etc.) were standard lab equipment; water was MilliQ grade quality, buffers were sterile filtered before use.
(Pre-)Incubation of Cells:
In each well of a 96-well U-bottom plate 200,000 PBMCs were pre-incubated in medium (RPMI1640-Gibco #61870-044+10% FBS+1% L-glutamine) for 5 hours at 37° C. and 5% CO2 before the compounds of the present invention or controls were added, respectively. Upon addition of compounds of the present invention or controls, the cells are incubated for another 24 h at 37° C. and 5% CO2.
Luminex assay, Step 1: Coupling of antibody to beads: • transfer a suspension (beads are stored in buffer as provided by manufacturer) of about 5 million MicroPlex Microspheres (=beads) into a low binding reaction vial • centrifuge bead suspension for 1 min at 10,000 g, discard supernatant and resuspend pellet in 160 μl Activation Buffer, repeat once • add 20 μl Sulfo-NHS solution and 20 μl EDC solution, vortex • incubate for 20 min in the absence of light • centrifuge bead suspension for 1 min at 10,000 g, discard supernatant and resuspend pellet in 500 μl Coupling Buffer, repeat once • add capture antibody (CaptureAK eBioscience #BMS160, 5 μg per 1 Mio beads) • incubate 2 h at RT in the absence of light while swaying • centrifuge bead suspension for 1 min at 10,000 g, discard supernatant and resuspend pellet in 500 μl Washing Buffer, repeat once • centrifuge bead suspension for 1 min at I0,000 g, discard supernatant and resuspend pellet in 100 μl Blocking Buffer
Luminex assay, Step 2: Measurement • add 100 μlAssay Buffer into each filter plate well (seal any unused wells with adhesive tape), then remove buffer • add about 2,000 beads per well per analyte (per analyte, a different bead type with distinct fluorescence color is used), suspended in […] of Assay Buffer • remove buffer and wash twice with 100 μl Washing Buffer per well • per well, add 50 μl sample solution from the (pre-)incubation step (cell supernatant), or Standard (IFN-α standard eBioscience #BMS216MST—concentration gradient, highest standard concentration 2500 pg/ml) or Assay Buffer (as blanks) • shake plate • incubate plate for 2 h at RT in the absence of light, while swaying the plate • wash three times with 100 μl Washing Buffer per well • add 25 μl antibody detection mix (DetectionAK eBioscience #BMS1016BT diluted 1:1000) in Assay Buffer per well, then vortex plate • incubate plate for 1 h at RT in the absence of light, while swaying the plate • wash three times with 100 μl Washing Buffer per well • add 50 μl Streptavidin/PE (diluted 1:200 in Assay Buffer) per well, then vortex plate • incubate plate for 10 min at RT in the absence of light, while swaying the plate • wash three times with 100 μl Washing Buffer per well • add 100 μl Assay Buffer per well, then vortex plate • start Luminex measurement according to manufacturer's instructions, measuring at least 50 beads per well per analyte
The compounds were tested at 8 different concentrations (1 μM, 0.3 μM, 0.1 μM, 0.03 μM, 0.01 μM 0.003 μM, 0.001 μM, 0.0003 μM) using a half-logarithmic dilution. […]

[2] = target: T1, human TLR7 (Homo sapiens, UniProt Q9NYK1); experiment: TLR7 reporter gene assay (HEK-Blue-hTLR7, NFkB/AP-1 inducible SEAP); type: cell-based
T1 construct: host or cells: HEK-Blue-hTLR7
T1 sequence (Q9NYK1 27-1049): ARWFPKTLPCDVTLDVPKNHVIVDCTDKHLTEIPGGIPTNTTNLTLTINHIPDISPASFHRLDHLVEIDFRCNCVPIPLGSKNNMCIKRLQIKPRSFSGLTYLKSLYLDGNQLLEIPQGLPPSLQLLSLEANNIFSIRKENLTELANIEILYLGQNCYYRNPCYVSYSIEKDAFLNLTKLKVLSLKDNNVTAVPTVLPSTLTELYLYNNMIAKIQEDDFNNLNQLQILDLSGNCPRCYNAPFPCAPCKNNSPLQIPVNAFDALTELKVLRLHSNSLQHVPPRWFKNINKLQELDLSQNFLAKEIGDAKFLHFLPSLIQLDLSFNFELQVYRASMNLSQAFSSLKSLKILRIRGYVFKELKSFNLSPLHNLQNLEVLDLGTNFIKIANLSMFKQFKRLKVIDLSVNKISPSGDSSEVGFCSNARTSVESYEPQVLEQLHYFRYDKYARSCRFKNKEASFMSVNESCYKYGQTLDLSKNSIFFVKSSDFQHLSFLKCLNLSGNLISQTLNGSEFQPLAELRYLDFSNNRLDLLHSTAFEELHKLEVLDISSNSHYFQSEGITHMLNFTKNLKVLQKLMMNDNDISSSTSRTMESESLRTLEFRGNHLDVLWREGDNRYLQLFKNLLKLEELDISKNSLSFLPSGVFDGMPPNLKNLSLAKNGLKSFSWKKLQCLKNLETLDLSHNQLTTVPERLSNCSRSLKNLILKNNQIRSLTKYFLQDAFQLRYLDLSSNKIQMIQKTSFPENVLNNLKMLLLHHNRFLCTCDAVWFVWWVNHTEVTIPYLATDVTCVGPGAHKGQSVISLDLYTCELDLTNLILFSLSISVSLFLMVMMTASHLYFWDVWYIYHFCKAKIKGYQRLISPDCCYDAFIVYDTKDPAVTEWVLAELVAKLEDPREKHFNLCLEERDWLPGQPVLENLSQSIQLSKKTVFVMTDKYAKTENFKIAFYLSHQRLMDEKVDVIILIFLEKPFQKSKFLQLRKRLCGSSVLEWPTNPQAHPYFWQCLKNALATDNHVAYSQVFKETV
Procedure: 2) TLR Stimulation Assay:
Compounds are tested for stimulation of human TLR7 and TLR8, respectively, via reporter gene expression analyzed in a cell line stably transfected with human TLR7 and TLR8, respectively, and coexpressing an NFkB/AP-1 inducible SEAP reporter gene. Stimulation with a TLR ligand leads to NFkB/AP-1 activation and upregulation and secretion of SEAP, which can be measured in the supernatant with QuantiBlue™ detection system (InvivoGen).
Cell lines used were either HEK-Blue-hTLR7 (InvivoGen #hkb-htlr7) or HEK-Blue-hTLR8 (InvivoGen #hkb-htlr8). Cells were cultured following manufacturer's instructions.
Assay: • prepare cell suspensions of each cell line with Nv=0.11×10^6 cells/ml in medium (DMEM 4.5 g/l Glucose, 2-4 mM L-glutamine+10% FBS) without antibiotics (Nv=number of living cells) • add 180 μl of the suspensions per well of a 96 well flat bottom cell culture plates (coster, #3506) • incubate the plates overnight at 37° C. and 5% CO2 • prepare samples and controls as solutions in DMSO: R848, CL075 (TLR 7/8 agonist by InvivoGen) and Guardiquimod each to a final concentration of 10 μM, ODN2006 (InvivoGen) and ODN2216 (InvivoGen) each to a final concentration 2 μM; • compounds of the invention are applied in dilution series to final concentrations of 30, 10, 3, 1, etc. μM • add 20 μl diluted compounds and controls (see above) to the wells • incubate plates for 20-24 h at 37° C. and 5% CO2 • prepare QuantiBlue™ (InvivoGen #10H19-MM) solution, following manufacturer's instructions: solubilize the powder of one pouch in 100 ml MilliQ grade water, heat at 37° C. in a water bath for about 30 min, filter the solution with a paper filter • add 100 μl prepared QuantiBlue™ solution in each well of a 96 well plate with flat bottom • add […] cell culture supernatant from the induced cells per well • incubate plates for 1 to 1.5 h at 37° C. (until an intense blue color has developed) • read OD at 620 nm with a plate reader • calculate EC50 from data points

[3] = 24 h incubation, maximum of bell-shaped curve over 0.0003-1 μM, Table 1
[4] = comparative compounds with 2-methyltetrahydrofuran-3-yl at R3, Table 2

Structure (SMILES)	Maximum IFN-α release [1, 3] [pg/mL]	Maximum IFN-α release [1, 4] [pg/mL]	also measured
CCc1nc2c(N)nc3ccccc3c2n1CCCCN(C(N)=O)C1CCOCC1 [Example 2, 1-(4-(4-Amino-2-ethyl-1H-imidazo[4,5-c]quinolin-1-yl)butyl)-1-(tetrabydro-2H-pyran-4-yl)urea]	1250		
COCCc1nc2c(N)nc3ccccc3c2n1CCCCN(C(C)=O)C1CCOCC1 [Example 5, N-(4-(4-Amino-2-(2-methoxyethyl)-1H-imidazo[4,5-c]quinolin-1-yl)butyl)-N-(tetrahydro-2H-pyran-4-yl)acetamide]	880		
COCCc1nc2c(N)nc3ccccc3c2n1CCCCN(C(C)=O)C1CCOC1C (stereo not drawn) [5′]		330	
COCCc1nc2c(N)nc3ccccc3c2n1CCCCN(C(N)=O)C1CCOCC1 [Example 6, 1-(4-(4-Amino-2-(2-methoxyethyl)-1H-imidazo[4,5-c]quinolin-1-yl)butyl)-1-(tetrahydro-2H-pyran-4-yl)urea]	1850		
CCNCc1nc2c(N)nc3ccccc3c2n1CCCCN(C(N)=O)C1CCOCC1 [Example 4, 1-(4-(4-Amino-2-((ethylamino)methyl)-1H-imidazo[4,5-c]quinolin-1-yl)butyl)-1-(tetrahydro-2H-pyran-4-yl)urea]	920		
CCc1nc2c(N)nc3ccccc3c2n1CCCCN(C(C)=O)C1CCOC1C (stereo not drawn) [example III, 3-{acetyl[4-(4-amino-2-ethyl-1H-imidazo[4,5-c]quinolin-1-yl)butyl]amino}-2,5-anhydro-1,3,4-trideoxypentitol]			EC50 ([2]; HEK-Blue-hTLR7, read-out: EC50 in the TLR7 reporter gene assay): 0.44 µM; EC50 in TLR7 reporter gene assay relative to Example 1 ([2]; fold higher EC50 than Example 1): ten-fold higher; maximum IFN-α release relative to present Example 1 ([1]; % of the maximum IFN-α release of Example 1): about 50%
CCNCc1nc2c(N)nc3ccccc3c2n1CCCCN(C(C)=O)C1CCOC1C (stereo not drawn) [3′]		360	
CCc1nc2c(N)nc3ccccc3c2n1CCCCN(C(C)=O)C1CCOC1C (stereo not drawn) [1′]		930	
CCNCc1nc2c(N)nc3ccccc3c2n1CCCCN(C(C)=O)C1CCOCC1 [Example 3, N-(4-(4-Amino-2-((ethylamino)methyl)-1H-imidazo[4,5-c]quinolin-1-yl)butyl)-N-(tetrahydro-2H-pyran-4-yl)acetamide]	1070		
CCNCc1nc2c(N)nc3ccccc3c2n1CCCCN(C(N)=O)C1CCOC1C (stereo not drawn) [4′]		290	

Reference: US12054485B2, “Substituted imidazoquinolines” (BIONTECH SE, priority 2017, dated 2024)
